This note sets out measurements from patent US4419349A (priority 1978, dated 1983).

Common to all, as to format: cell-based
In one experiment the test system is mouse spleen cells. Briefly: IF induction in vitro, mouse (Table 6). The following applies: control 1.0 μg/ml. The method, then: (§1) A spleen cell suspension (10^7 cells/ml) was prepared by the method of hereinafter described Experiment 1 using an Eagle MEM medium (commercial product of Nissui Seiyaku K.K., Tokyo) containing a 10% calf serum (which was replaced by a 10% fetal cattle serum in the cases of human tests), each of which fraction (1 ml) was added with a given concentration of the sample of the active substance and incubated at a given temperature. The cultured liquor was centrifuged to separate a supernatant which was used for determining the IF activity induced. In the case of humans, the fresh spleen was collected from a person (adult deceased by external wounds) and used for the preparation of a leucocytes suspension on each occasion, and also blood was collected from the vein at the upper arm of a person (adult), from which the serum was separated to use for the preparation of a serum suspension on each occasion.
(§2) The IF activities were determined by using the cells shown in Table 5 in a similar manner to that hereinafter described in Experiment 1.

The subject of a further experiment is human spleen cells. Briefly: IF induction in vitro, human spleen (Table 6). Conditions: control 1.0 μg/ml. The method, then: as §1, §2
In another experiment the test system is rabbit spleen cells.

Turning to Poly I:C, the figures for the “IF activity in vitro (Control)” value with mouse spleen cells, with human spleen cells and in the experiment on rabbit spleen cells were 120, less than 5 and 220, respectively.
